System: IUGR rats
Assay: Insulin content of pancreas of IUGR rats at postnatal day 57 after HMO supplementation (ELISA)
Assay type: in vivo, Sprague-Dawley rats
Details: gavage 3 g/kg body weight d7 to d21, then diet with 4.5 wt% HMO d22 to d57, sacrifice at day 57 after 6-hr fasting, compared with control IUGR rats (about 50 μg insulin per g pancreatic tissue), FIG. 1, *P<0.05
Excerpt: Three groups of time-mated pregnant Sprague-Dawley female rats were bought from Charles River laboratories. One group was submitted to food restriction of 60% during the last 10 days of gestation and their offspring were cross-fostered to normally fed rats. A second group of pregnant females was normally fed and their offspring cross-fostered among the same group of dams. Immediately after birth ([…]), the born rat pups-subjects of the experiment-were assigned to one of the following groups: • IUGR group (negative control; n=20): IUGR rats being fed a normal diet after birth; • IUGR rats+HMO (test groups): During the experiment, they were reared by their mothers for 21 days and supplemented with HMOs (2-FL, LNnT or the Mix of 2-FL and LNnT). At weaning, they were fed a diet supplemented with the same HMOs, see details below. […] All rat pups were fed from birth (d=1) up to 57 days (d=57) based on the following protocol: • d1 to d6: all groups of rats were nursed by dam (mothers' milk only); • d7 to d21: all rats were nursed by dam (mothers' milk only). […] Rats were sacrificed at day 57 (postnatal day 57=p57) after a 6-hr fasting period and pancreas was dissected and its insulin content was extracted using a solution acid-ethanol and quantified using an Ultra Sensitive Insulin ELISA kit ([…]., Downer Grove, Ill., USA) with and inter assay CV of 4.0%.

CC(=O)N[C@H]1[C@H](O[C@H]2[C@@H](O)[C@@H](CO)O[C@@H](O[C@H]3[C@H](O)[C@@H](O)C(O)O[C@@H]3CO)[C@@H]2O)O[C@H](CO)[C@@H](O[C@@H]2O[C@H](CO)[C@H](O)[C@H](O)[C@H]2O)[C@@H]1O (mixture of isomers) [LNnT, lacto-N-neotetraose]
insulin content of the rat's pancreas (amount of insulin per gram of pancreatic tissue): about the same level of insulin

2′-fucosyllactose [2FL]
insulin content of the rat's pancreas (amount of insulin per gram of pancreatic tissue): significantly higher value of insulin

Source: US20220000892A1, “INFANT NUTRITIONAL COMPOSITION FOR USE IN THE ENHANCEMENT OF PANCREATIC MATURATION AND INSULIN BIOSYNTHESIS” (SOCIETE DES PRODUITS NESTLE S.A., priority 2018, published 2022)
